Data from article PMC8883495, “N-terminal phosphorylation regulates the activity of glycogen synthase kinase 3 from Plasmodium falciparum” (Biochemical Journal, 2022).

Tests used:
[1] = target: T1, PfGSK3 (Plasmodium falciparum, UniProt O77344); experiment: nanoDSF thermal shift; format: binding; conditions: 1 mg/ml protein; 6 mM dATP in Figure 2B; concentration series in supplement; heating 1 °C/min
T1 construct: gene PF3D7_0312400
T1 sequence (O77344 1-440): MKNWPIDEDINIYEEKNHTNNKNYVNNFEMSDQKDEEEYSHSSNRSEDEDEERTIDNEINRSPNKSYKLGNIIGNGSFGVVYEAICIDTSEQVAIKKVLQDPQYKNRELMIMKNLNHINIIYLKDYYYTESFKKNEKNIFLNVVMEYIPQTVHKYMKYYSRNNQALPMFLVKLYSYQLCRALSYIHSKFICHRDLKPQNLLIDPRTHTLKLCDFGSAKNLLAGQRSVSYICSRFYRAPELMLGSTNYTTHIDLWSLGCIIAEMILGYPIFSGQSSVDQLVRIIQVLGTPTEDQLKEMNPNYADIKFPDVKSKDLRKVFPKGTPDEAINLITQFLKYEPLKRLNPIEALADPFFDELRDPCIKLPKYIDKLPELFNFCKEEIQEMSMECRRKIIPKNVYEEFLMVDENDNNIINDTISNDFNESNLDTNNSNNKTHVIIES

[2] = target: T1, PfGSK3; experiment: KinaseGlo Plus luminescence ATP consumption (autophosphorylation); format: biochemical; conditions: 30 µM ATP, no peptide substrate; 20 mM MgCl2; pH 7.5; 30 °C

Row | SMILES | Tm [1] | KinaseGlo Plus luminescence ATP consumption (autophosphorylation) [2]
1 | Nc1ncnc2c1ncn2[C@H]1C[C@H](O)[C@@H](COP(=O)(O)OP(=O)(O)OP(=O)(O)O)O1 [dATP] | dATP stabilizes PfGSK3, suggesting that it binds in the ATP binding pocket | 
2 | Nc1ncnc2c1ncn2[C@@H]1O[C@H](COP(=O)(O)OP(=O)(O)OP(=O)(O)O)[C@@H](O)[C@H]1O [ATP] |  | The assay showed the consumption of ATP even in the absence of the substrate peptide
